Results on 1 molecule are retold here after patent publication US20240400717A1, “Antibody Binding to CHI3L1 for Treating Cancer” (National Cheng Kung University, priority 2021, published 2024).

In this data set the test system is MiaPaCa cells. As to the kind of experiment: MiaPaCa orthotopic NOD-SCID mice model.
Setting [1] is: mAb 5 mg/kg i.v., gemcitabine 50 mg/kg i.p.

Experimental: Specifically, experimental design of tumor growth inhibition in vivo. MiaPaCa cells (5×10^6) were injected into pancreas of NOD-SCID mice at Day 0. […] Mice were sacrificed on day 34. […] Since fibrosis and angiogenesis are two major issues during tumor progression, we compared the fibrosis and angiogenesis level within each groups.

`Nc1ccn([C@@H]2O[C@H](CO)[C@@H](O)C2(F)F)c(=O)n1` [gemcitabine, reference compound]: the “level of CHI3L1 in intratumoral region and plasma” value (end of experiment) is reported as “lower than IgG control group”. For the same molecule, under setting [1], the “angiogenesis indicated by CD31 expression” value was “decreased in every treatment groups” and the body weight entry is on record as “without significant weight loss”. Moreover, the tumor size entry (mAb 5 mg/kg i.v., gemcitabine 50 mg/kg i.p., Day 7, 14, 21, 28, sacrificed day 34) was “smaller than IgG control group”.
